2 substances from US20260200982A1, “HER RECEPTOR DERIVED PEPTIDES AND METHODS OF USE THEREOF” (Ramot at Tel-Aviv University Ltd., priority 2022, published 2026) can be followed below.

One assay has as its system EGFR (ErbB1). The assay can be described thus: Immunoblotting of cell lysates, EGFR phosphorylation. Type of assay: cell-based, human. The settings on record: SKBR3, DLD-1 and HCT116; 50 μM, 24 hours; FIG. 3B. As for the experimental part:
(§1) Lysate preparation and immunoblotting—Cells were seeded at cell densities of 1.5×10^5 (DLD-1), 1.8×10^5 (HCT-116) and 2.5×10^5 (SKBR3) cells/well, treated as indicated and grown for 24 hours. Following, cells were lysed in solubilization buffer; the lysates were cleared by centrifugation and a boiling gel sample buffer was added. Proteins were resolved by SDS-polyacrylamide gel electrophoresis through 10% polyacrylamide gels, and were electrophoretically transferred to nitrocellulose membranes. Membranes were blocked in TBST buffer containing 6% milk, and blotted with primary antibodies. Following, a secondary antibody linked to horseradish peroxidase was added. Immunoreactive bands were detected with the enhanced chemiluminescence reagent Immobilon Crescendo Western HRP substrate (WBLUR0100; Merck Millipore).

The subject of assay [1] is SKBR3 breast cancer cells. Type of assay: cell-based, human. The settings on record: 72 hours. An excerpt: (§2) Cell lines—Human breast cancer cell lines SKBR3 [Peles E et al. EMBO J. (1993) 12(3):961-71] and MCF7 [Faigenbloom L et al., Mol Syst Biol. (2015) 11(12):845] and human glioblastoma U87 [Goldberg L et al. Cancer Res. (2006) 66(24):11709-17] cell line, as well as Rat-1 fibroblast cells and H-Ras-transformed Rat-1 cells (EJ cells) [Marom M et al. J Biol Chem. (1995) 270(38):22263-70] and human Panc-1 and MIA PaCa-2 pancreatic cell lines (Rak R et al. Oncoscience. 2014 1(1):39-48; Weisz B et al. Oncogene (1999) 18, 2579±2588) were all grown in Dulbecco's modified Eagle's medium (DMEM; Biological Industries, Beithaemek, Israel). Human colorectal cancer cell lines DLD-1 (ATTC Cat No. CCL-221), HCT-116 (ATTC Cat No. CCL-247) and LNCaP prostate cancer cells were grown in Roswell Park Memorial Institute 1640 (RPMI 1640) medium and McCoy's 5A media, respectively (Sigma-Aldrich). All media were supplemented with antibiotics and 10% heat-inactivated fetal bovine serum (FBS; Gibco). Human breast cell line MCF10A [Bott A et al. Oncotarget. (2017) 8(27):43897-43914] was grown in Dulbeco's Modified Eagle's Medium/Nutrient Mixture F-12 HAM medium (DMEM F-12 HAM; Sigma-Aldrich), supplemented with antibiotics, 5% inactivated horse serum (HS; Invitrogen), 2 mM L-glutamine (Biological Industries, Beithaemek, Israel), 0.1 μg/ml cholera toxin (Sigma-Aldrich), 0.5 μg/ml hydrocortisone (Sigma-Aldrich), 10 μg/ml insulin (Biological Industries, Beithaemek, Israel) and 2 ng/ml EGF (R&D Systems). Cells were incubated at 37° C. in 5% CO2 in air, and the medium was changed every 3-4 days. Cells were passaged in trypsin/disodium ethylenediaminetetraacetic acid (Biological Industries, Beithaemek, Israel) when confluency reached 70%. One day prior to treatment the cells were plated at ~50% confluency in a medium supplemented with 10% FBS or 5% HS, accordingly.
(§3) Methylene blue viability assay—Cells were plated in 96-wells plates at cell densities of 1.5×10^3 (EJ, DLD-1), 3×10^3 (Rat-1, HCT-116, U87), 5×10^3 (SKBR3, MCF7) and 6×10^3 (MCF10A) cells/well. […] Cell number determination was performed as described previously. IC-50 values were calculated using a non-linear regression model (logarithmic inhibitor vs. normalized response-variable slope) with the GraphPad Prism 6 software.

Another assay has as its system MCF7 breast cancer cells. Type of assay: cell-based, human. The settings on record: 72 hours.
Source text: as §2, §3

In a further assay the test system is ErbB2. The assay can be described thus: Immunoblotting of cell lysates, ErbB2 phosphorylation. Type of assay: cell-based, human. The settings on record: SKBR3, DLD-1 and HCT116; 50 μM, 24 hours; FIG. 3B. On the procedure:
as §1
On the technique in general: In western blotting, separated proteins are transferred to a membrane and probed.

The test system of a further assay is DLD-1 colon cancer cells. Type of assay: cell-based, human. The settings on record: 72 hours.
Source text: as §2
(§4) Methylene blue viability assay—Cells were plated in 96-wells plates at cell densities of 1.5×10^3 (EJ, DLD-1), 3×10^3 (Rat-1, HCT-116, U87), 5×10^3 (SKBR3, MCF7) and 6×10^3 (MCF10A) cells/well. On the following day, cells were treated as indicated, and grown for 72 hours. Cell number determination was performed as described previously. IC-50 values were calculated using a non-linear regression model (logarithmic inhibitor vs. normalized response-variable slope) with the GraphPad Prism 6 software.

Assay [2] relates to HCT-116 colon cancer cells. Type of assay: cell-based, human. The settings on record: 72 hours.
Source text: as §2, §4

Assay [3] relates to non-cancerous (MCF10A) breast cell line. As to the kind of experiment: Methylene blue viability assay, MCF10A. Type of assay: cell-based, human. The settings on record: FIGS. 2A-C.
Source text: as §2, §4

The target in assay [4] is T1, ErbB2-nucleolin complexes (Homo sapiens, UniProt P19338).
T1 construct: endogenous in cells; host or cells: SKBR3
The assay can be described thus: Proximity Ligation Assay (PLA). The assay is classed as cell-based. The settings on record: SKBR3 cells, 53 μM, 48 hours, FIG. 3A. As for the experimental part:
Proximity Ligation Assay (PLA)—For proximity ligation assay (PLA) cells were plated in a 16-wells Nunc Lab-Tek glass Chamber Slide System (178599; Thermo Scientific) at a density of 3.5×10^3 cells/well. 2 hours post-seeding the cells were treated with 53 μM of either TAT peptide (SEQ ID NO: 2) or TAT-NLS peptide (SEQ ID NO: 3) and grown for 48 hours. Following fixation, cells were incubated with rabbit anti-ErbB2 and mouse anti-nucleolin antibodies. PLA was performed using the Duolink In-Situ PLA probes: anti-rabbit MINUS and anti-mouse PLUS, and the Duolink In-Situ Detection Reagents Red kit (DUO92005; DUO92001; DUO92008, respectively; Sigma-Aldrich), according to the manufacturer's instructions. Nuclei were stained using the Duolink In-Situ Mounting Medium with DAPI (DUO82040; Sigma-Aldrich). Slides were visualized 24 hours post-staining and images were obtained using an Olympus motorized inverted research microscope Model IX81 (60× magnification). Signal intensity was determined using ImageJ software.

The subject of assay [5] is DLD-1 colon cancer tumor xenografts. The assay can be described thus: Colon Tumor Growth in Nude Mice. The settings on record: DLD-1 xenografts, 25 μg/100 μl PBS intraperitoneal daily, FIGS. 14A-C. The assay is classed as in vivo. As for the experimental part: Colon Tumor Growth in Nude Mice—Nude CD1-Nu mice (25-30 g) housed in barrier facilities on a 12-h light/dark cycle one week prior to the injection of tumor cells (day zero). On day zero, 5×10^6 DLD-1 cells were implanted subcutaneously just above the right femoral joint. Tumor size was measured every 3-4 days. When the tumors were apparently seen, the animals were divided randomly into three groups of mice [control vehicle treated, myr-NLS1 (SEQ ID NO: 5), myr-NLS4 (SEQ ID NO: 17)]. Treatment was performed by intraperitoneal injection of 25 μg in 100 μl PBS every day. Mice were weighed and tumors size was measured 3 times a week. At the end of the experiment, the mice were sacrificed, and the tumors were dissected and used for further analysis.

A further assay deals with DLD-1 cells. As to the kind of experiment: Colony formation assay, DLD-1. The settings on record: 20 μM, 72 hours, FIG. 12. The assay is classed as cell-based, human. As for the experimental part: Colony formation assay—Cells were plated onto 12-well plate (6×10^4 cells/well) and treated with either PBS or myr-NLS at the IC50 concentration for 3 days. Cells were collected and replated in 10-cm plates (at 3 dilutions of 1:10, 1:20 and 1:40). After 7-14 days when visible and yet separated colonies were formed, the cells were fixed with 0.1% acetic acid in PBS, and stained with 0.4% crystal violet in 0.1% acetic acid. Total colonies area was calculated using the ImageJ program.
In addition, a colony formation assay was conducted to further examine the anti-tumor effect of the myr-NLS (SEQ ID NO: 5), myr-NLS2 (SEQ ID NO: 15) and myr-NLS4 (SEQ ID NO: 17) peptides. To this end, DLD-1 cells were treated or untreated for 72 hours with 20 μM of the myr-peptides. Cells were then seeded at the same dilutions in new plates until colonies were formed.

The star is where a group is joined. Myristoyl = CCCCCCCCCCCCCC(=O)*

T1 sequence (P19338 2-710 limits assumed, one chain of several): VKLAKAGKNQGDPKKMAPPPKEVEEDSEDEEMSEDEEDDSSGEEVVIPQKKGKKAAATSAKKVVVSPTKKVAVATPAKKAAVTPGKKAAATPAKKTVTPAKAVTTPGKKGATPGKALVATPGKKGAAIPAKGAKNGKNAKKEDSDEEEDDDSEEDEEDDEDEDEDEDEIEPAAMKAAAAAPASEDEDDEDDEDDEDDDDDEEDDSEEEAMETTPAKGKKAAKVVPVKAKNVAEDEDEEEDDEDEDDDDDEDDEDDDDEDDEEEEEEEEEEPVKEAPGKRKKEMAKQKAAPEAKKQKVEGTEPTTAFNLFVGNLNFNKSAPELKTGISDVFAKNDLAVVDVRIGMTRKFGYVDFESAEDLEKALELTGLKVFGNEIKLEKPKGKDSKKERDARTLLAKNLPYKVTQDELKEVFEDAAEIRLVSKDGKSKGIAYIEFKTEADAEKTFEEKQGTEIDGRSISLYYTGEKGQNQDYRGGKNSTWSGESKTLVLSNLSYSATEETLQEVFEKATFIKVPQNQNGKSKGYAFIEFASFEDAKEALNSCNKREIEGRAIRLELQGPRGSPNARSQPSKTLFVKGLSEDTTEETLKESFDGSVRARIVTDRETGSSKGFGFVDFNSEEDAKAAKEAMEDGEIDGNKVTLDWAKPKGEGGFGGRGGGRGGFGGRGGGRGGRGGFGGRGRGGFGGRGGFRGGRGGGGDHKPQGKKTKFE

As to GRKKRRQRRRPPQRRRHIVRKRTLRRLL [TAT-NLS], the ErbB1 phosphorylation entry in the assay with EGFR (ErbB1) is reported as “inhibited”. In addition, in [1] (FIGS. 2A-C), the “cell growth of SKBR3 breast cancer cells” value is reported as “inhibited cell growth”. Moreover, the IC50 on cell viability came out at 83.1 µM in assay [1] (SKBR, FIG. 2C); 49.5 µM in the assay on MCF7 breast cancer cells (MCF7, FIG. 2C); 40.2 µM with DLD-1 colon cancer cells (DLD-1, FIG. 2C); 27.7 µM in assay [2] (HCT116, FIG. 2C). In the assay with MCF7 breast cancer cells (FIGS. 2A-C), the “cell growth of MCF7 breast cancer cells” value is “inhibited cell growth”. For the same substance, the ErbB2 phosphorylation result with ErbB2 was “inhibited”. Further, the “cell growth of DLD-1 colon cancer cells” value with DLD-1 colon cancer cells (FIGS. 2A-C) was “inhibited cell growth”. For the same substance, the “cell growth of HCT-116 colon cancer cells” value in assay [2] (FIGS. 2A-C) is given as “inhibited cell growth”. The “viability of the non-cancerous cells MCF10” value in [3] is “not affecting viability”. Further, the “interaction between the ErbB2 receptor and nucleolin (PLA)” value in assay [4] is on record as “reduced the interaction”; in [4] (listed as TAL-NLS) it was “disrupts the ErbB-nucleolin interaction”.

Regarding “Myr-RRKSIKKKRALRRFL-OH (Myristoyl-RRKSIKKKRALRRFL-OH; SMILES CCCCCCCCCCCCCC(=O)N[C@@H](CCCNC(=N)N)C(=O)N[C@@H](CCCNC(=N)N)C(=O)N[C@@H](CCCCN)C(=O)N[C@@H](CO)C(=O)N[C@H](C(=O)N[C@@H](CCCCN)C(=O)N[C@@H](CCCCN)C(=O)N[C@@H](CCCCN)C(=O)N[C@@H](CCCNC(=N)N)C(=O)N[C@@H](C)C(=O)N[C@@H](CC(C)C)C(=O)N[C@@H](CCCNC(=N)N)C(=O)N[C@@H](CCCNC(=N)N)C(=O)N[C@@H](Cc1ccccc1)C(=O)N[C@@H](CC(C)C)C(=O)O)[C@@H](C)CC) [myr-NLS4]”, in assay [5], the “tumor growth (tumor size, tumor weight)” value is recorded as “significantly reduced tumor cell growth”. The “colony formation (total colonies area)” value with DLD-1 cells was “fewer and smaller colonies”.
